Measurements reported in patent US20240300936A1 (priority 2021, published 2024).

Test system: HELA cells
Test: HELA cell proliferation assay (CellTitre-Glo, 6 days)
Format: cell-based
Conditions: Homo sapiens, 144 h; HELA cells, 6 days treatment, CellTitre-Glo; read-out: HeLa pIC50 (converted)

SMILES	IC50 [nM]
CC(C)(Nc1nc(N)nc(-c2ccc3cn[nH]c3c2F)n1)c1ccn(C(F)F)n1 [Example 102, N2-[1-[1-(difluoromethyl)pyrazol-3-yl]-1-methyl-ethyl]-6-(7-fluoro-1H-indazol-6-yl)-1,3,5-triazine-2,4-diamine]	295
CC(C)(Nc1nc(N)nc(-c2cc(F)c3cn[nH]c3c2)n1)c1ccn(C(F)F)n1 [Example 104, N2-[1-[1-(difluoromethyl)pyrazol-3-yl]-1-methyl-ethyl]-6-(4-fluoro-1H-indazol-6-yl)-1,3,5-triazine-2,4-diamine]	219
